According to patent US20200172483A1, “HETEROCYCLIC SMALL MOLECULE MODULATORS OF HUMAN STING” (Curadev Pharma Limited, priority 2017, published 2020):

Target: T1, WT/R232 STING protein (Homo sapiens, UniProt Q86WV6, H232R)
T1 construct: host or cells: HEK293T
Test: Luciferase reporter assay in HEK293T-hSTING-Luciferase cells (R232)
Format: cell-based
Details: 20 hr stimulation, EC50 range
Text: • a) Stable STING expressing cells—Stable HEK293T STING-expressing cell lines were generated using plasmids purchased from Invivogen, CA, USA, that contain STING cDNA cloned into the pUNO-1 vector under hEF1-HTLV promoter and containing the Blasticidin selection cassette. The plasmids hSTING (R232), hSTING (H232), hSTING (HAQ) were directly procured from Invivogen while hSTING (AQ) and hSTING (Q) were derived from hSTING (HAQ) and hSTING (R232) plasmids respectively by using a PCR based site directed mutagenesis method. These vectors were individually transfected into HEK293T cells using Lipofectamine (Invitrogen) and transfected cells were selected under Blasticidin selection. These transfected cells were further subjected to clonal selection using the limiting dilution method to obtain clonally pure populations of HEK cells transfected with each of the above mentioned human STING variants. Only those clones were selected in which ligand independent activation of STING was minimal. • b) Stable Luciferase reporter gene expressing cells—Stable HEK293T Luciferase reporter gene expressing cell lines were generated using pCDNA4 plasmids under an IRF-inducible promoter. This promoter is comprised of five tandem interferon-stimulated response elements (ISRE) fused to an ISG54 minimal promoter. This vector was transfected into HEK293T cells using Lipofectamine (Invitrogen) and transfected cells were selected under Zeocin selection. These transfected cells were further subjected to clonal selection using the limiting dilution method to obtain clonally pure populations of HEK cells transfected the Luciferase reporter construct. Only those clones were selected in which ligand independent induction of luciferase was minimal.
5×10^5 clonally selected HEK293T-hSTING-Luciferase cells were seeded in 384-well plates in growth medium and stimulated with novel compounds. After 20 hr of stimulation supernatant were removed and secretary reporter gene activity were measured using the Quanti-Luc detection system (Invivogen) on a Spectramax i3X luminometer.
All compounds were first tested in a primary screen using WT/R232 STING protein to obtain a ‘fold-induction’ over baseline levels of protein activity.

T1 sequence (Q86WV6 whole entry H232R): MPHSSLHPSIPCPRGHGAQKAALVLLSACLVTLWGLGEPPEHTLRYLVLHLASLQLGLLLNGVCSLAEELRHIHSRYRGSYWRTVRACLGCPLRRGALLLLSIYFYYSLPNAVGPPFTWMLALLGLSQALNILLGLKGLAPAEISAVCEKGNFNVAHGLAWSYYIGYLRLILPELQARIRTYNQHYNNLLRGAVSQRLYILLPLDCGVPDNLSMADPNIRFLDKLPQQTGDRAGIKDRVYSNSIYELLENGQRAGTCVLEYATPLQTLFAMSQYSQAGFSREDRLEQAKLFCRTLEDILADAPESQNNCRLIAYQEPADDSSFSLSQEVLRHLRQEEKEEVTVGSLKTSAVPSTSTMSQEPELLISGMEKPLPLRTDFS

| SMILES | EC50 [µM] |
| --- | --- |
| O=C(NCc1ccco1)c1ccc2c(c1)N(C(=O)c1c(F)cccc1Cl)CC2 [Example 135, 1-(2-chloro-6-fluorobenzoyl)-N-(furan-2-ylmethyl)indoline-6-carboxamide] | > 10 |
| CC1(C)C(=O)N(Cc2cc3ccccc3o2)c2cc(C(=O)NCc3c(F)cc(F)cc3F)ccc21 [Example 131, 1-(benzofuran-2-ylmethyl)-3,3-dimethyl-2-oxo-N-(2,4,6-trifluorobenzyl)indoline-6-carboxamide] | > 10 |
| CC1(CC#N)C(=O)N(Cc2cc(F)cc(F)c2)c2cc(C(=O)NCc3c(F)cc(F)cc3F)ccc21 (stereo not drawn) [Example 178, 3-(cyanomethyl)-1-(3,5-difluorobenzyl)-3-methyl-2-oxo-N-(2,4,6-trifluorobenzyl)indoline-6-carboxamide] | 1 to 10 |
| CC1(F)C(=O)N(Cc2cc(F)cc(F)c2)c2cc(C(=O)NCc3c(F)cc(F)cc3F)ccc21 (stereo not drawn) [Example 150, 1-(3,5-difluorobenzyl)-3-fluoro-3-methyl-2-oxo-N-(2,4,6-trifluorobenzyl)indoline-6-carboxamide] | 1 to 10 |
| O=C(NCc1ccco1)c1ccc2sc(=O)n(Cc3c(F)cccc3Cl)c2c1 [Example 201, 3-(2-chloro-6-fluorobenzyl)-N-(furan-2-ylmethyl)-2-oxo-2,3-dihydrobenzo[d]thiazole-5-carboxamide] | > 10 |
| CC1(C)C(=O)N(Cc2ccc(F)cc2)c2nc(C(=O)NCc3c(F)cc(F)cc3F)ccc21 [Example 181, 1-(4-fluorobenzyl)-3,3-dimethyl-2-oxo-N-(2,4,6-trifluorobenzyl)-2,3-dihydro-1H-pyrrolo[2,3-b]pyridine-6-carboxamide] | > 10 |
| O=C(NCc1c(F)cc(F)cc1F)c1ccc2c(c1)N(Cc1cc(F)cc(F)c1)C(=O)C21CCCCC1 [Example 138] | > 10 |
| CC1(C)C(=O)N(Cc2c(F)cccc2Cl)c2cc(C(=O)NCc3ccc(N)cc3)ccc21 [Example 85, N-(4-aminobenzyl)-1-(2-chloro-6-fluorobenzyl)-3,3-dimethyl-2-oxoindoline-6-carboxamide] | 1 to 10 |
| CC1(C)C(=O)N(Cc2cc(F)cc(F)c2)c2cc(C(=O)NCC3CCC(F)(F)C3)ccc21 (stereo not drawn) [Example 39, 1-(3,5-difluorobenzyl)-N-((3,3-difluorocyclopentyl)methyl)-3,3-dimethyl-2-oxoindoline-6-carboxamide] | > 10 |

Results, then the compound that gave them:

| EC50 [µM] | SMILES |
| --- | --- |
| > 10 | CC1(C)C(=O)N(Cc2cc(F)cc(F)c2)c2cc(C(=O)NCc3cccc(C(F)(F)F)c3)ccc21 [Example 45, 1-(3,5-difluorobenzyl)-3,3-dimethyl-2-oxo-N-(3-(trifluoromethyl)benzyl)indoline-6-carboxamide] |
| > 10 | Cc1cccc(-c2nc(CN3C(=O)C(C)(C)c4ccc(C(=O)NCc5c(F)cc(F)cc5F)cc43)c(C)o2)c1 [Example 78, 3,3-dimethyl-1-((5-methyl-2-(m-tolyl)oxazol-4-yl)methyl)-2-oxo-N-(2,4,6-trifluorobenzyl)indoline-6-carboxamide] |
| > 10 | O=C(NCc1c(F)cc(F)cc1F)c1ccc2c(c1)N(Cc1cc(F)cc(F)c1)C(=O)C2=O [Example 141, 1-(3,5-Difluorobenzyl)-2,3-dioxo-N-(2,4,6-trifluorobenzyl)indoline-6-carboxamide] |
| > 10 | CC1(CN)C(=O)N(Cc2cc(F)cc(F)c2)c2cc(C(=O)NCc3c(F)cc(F)cc3F)ccc21 (stereo not drawn) [Example 172, 3-(aminomethyl)-1-(3,5-difluorobenzyl)-3-methyl-2-oxo-N-(2,4,6-trifluorobenzyl)indoline-6-carboxamide] |
| 1 to 10 | CC1(C)C(=O)N(Cc2cc(F)cc(F)c2)c2cc(C(=O)NCc3cccc(N=[N+]=[N-])c3)ccc21 [Example 47, N-(3-azidobenzyl)-1-(3,5-difluorobenzyl)-3,3-dimethyl-2-oxoindoline-6-carboxamide] |
| 1 to 10 | CN(C)C1(C)C(=O)N(Cc2c(F)cccc2Cl)c2cc(C(=O)NCc3c(F)cc(F)cc3F)ccc21 (stereo not drawn) [Example 152, 1-(2-chloro-6-fluorobenzyl)-3-(dimethylamino)-3-methyl-2-oxo-N-(2,4,6-trifluorobenzyl)indoline-6-carboxamide] |
